In patent publication US20090137390A1, “Materials and methods for enhancing nitrogen fixation in plants” (priority 2004, published 2009):
Entries after “also recorded” stand apart in the source; their conditions may differ.

What was measured:
PR1::GUS = assay: GUS histochemical staining and GUS fluorogenic assay in PR1::GUS plants; assay type: in vivo, Arabidopsis thaliana; details: histochemical staining and fluorogenic assays
Procedure: GUS histochemical staining and GUS fluorogenic assay. Roots of transgenic Arabidopsis thaliana Col-0 harboring a pathogenesis-related 1 (PR1) gene promoter fused to the bacterial uidA (β-glucuronidase) reporter gene (PR1::GUS) were inoculated with 10^7 CFU S. enterica 14028, the 14028 sipB mutant, and the complemented sipB mutant,. Exogenous application of salicylic acid (5 mM) and infiltration of leaves with 10^7 CFU of an avirulent strain of P. syringae DC3000 carrying the avrRpt2 on plasmid PV288 were used as positive controls (Kunkel et al., 1993; Ton et al., 2002). The histochemical assay was performed as described by Sundaresan et al. (1995) with slight modifications (Sundaresan et al., 1995). Plants were immersed in staining buffer (50 mM sodium phosphate pH7, 10 mM EDTA, 0.1% Triton X-100, 100 μg/ml chloramphenicol, 5 mM potassium ferricyanide and 0.5 mg/ml 5-bromo-4-chloro-3-indolyl-β-D-glucuronide (X-Glc). Plants were then vacuum infiltrated, incubated overnight at 37° C., and destained with 70% ethanol.
To conduct the quantitative GUS fluorogenic assay, whole plants were flash-frozen in liquid N2 and crushed. The fluorogenic assay and protein extraction were done as described by (Jefferson et al, 1987). Protein concentration of the samples was determined using a BCA protein assay kit (PIERCE, Rockford, Ill.).

[1] = tested on: Medicago sativa roots and hypocotyls; assay: Endophytic colonization of alfalfa seedlings (CFU recovered from interior of roots and hypocotyls); assay type: in vivo
Text: (§1) Bacterial strains and inoculum preparation. BA3104 was constructed by sequential P22 transduction into 14028 using a P22HTint lysate grown on the SL3201 fliC::Tn10 fliB::MudJ strain kindly provided by Dr. Allison O'Brien (Schmitt et al., 2001). pHC112 was constructed by amplifying the spaS gene of 14028 (nucleotides 28 to 1327 of GenBank accession number AE008832) using Taq DNA polymerase. The spaS fragment was cloned into pCR-2.1-TOPO (Invitrogen), removed using EcoRI, and cloned into the EcoRI site of pWSK29 (Wang and Kushner 1991). pHC113 was constructed in the same way except that the sipB gene was amplified (nucleotides 18133 to 20138 of GenBank accession number AE008831). Bacterial strains were cultured and inoculum prepared as described previously (Dong et al., 2003a; Dong et al., 2003b) with the exception of the experiments designed to estimate the number of infection events. For these experiments the inoculum strains were composed of a mixture of either 14028 or Kp342 with and without a constitutively expressed GFP gene.
(§2) Seed surface sterilization, germination, inoculation, plant culture and harvest. The manipulation of plants, from seed surface sterilization to plant harvest, were carried out by methods developed previously (Dong et al., 2003a; Dong et al., 2003b).
(§3) Determination of microbial population within surface sterilized plant tissue. With the exception of the M. truncatula sickle experiment, where the whole plant tissue was used to determine microbial populations, only the root and hypocotyl were examined for bacterial colonization. The procedures used for surface sterilization, determination of endophytic microbial populations and statistical analysis were done as described previously (Dong et al., 2003a; Dong et al., 2003b).
(§4) Assurance of endophytic colonization results. To ensure the endophytic colonization numbers presented reflect only the number of cells within the interior of plant tissue, previously developed methods were followed (Dong et al., 2003a; Dong et al., 2003b).
Induction of ethylene response in seedlings. […]

[2] = tested on: Medicago truncatula roots and hypocotyls; assay: Endophytic colonization of Medicago truncatula seedlings (CFU recovered from interior); assay type: in vivo
Text: as §1, §2, §3, §4
Induction of ethylene response in seedlings. To induce ethylene responses, seedlings were cultured in growth medium as described previously (Dong et al., 2003a) supplemented with 5 μM 1-aminocyclopropane-1-carboxylic acid (ACC). ACC was dissolved in water and filter sterilized prior to its addition to autoclaved plant growth media. In most experiments, seedlings were exposed to media containing ACC for 12 hours prior to inoculation.
Preparation and use of 1-methylcyclopropene (1-MCP). The gaseous ethylene action inhibitor, 1-MCP, was prepared and stored as described by Hall et al. (2000). 1-MCP was generated from ETHYLBLOC, which was provided by A. B. Bleecker (University of Wisconsin—Madison). The concentration of 1-MCP in ETHYLBLOC is of 0.14%. A stock of 1-MCP of 100 ppm was created in a serum bottle of 121.5 ml in volume. This was accomplished by adding 19.44 mg of ETHYLBLOC and 0.5 ml of hot H2O to the serum bottle and set to rest for 15 minutes. The stock was used to dispense 0.3 ml of headspace gas to 30 ml stopped test tubes where the plants were cultured, resulting in a final concentration of 1 ppm per tube. The plant cultures were placed under conditions as described previously (Dong et al., 2003a; Dong et al., 2003b) with the exception of a rubber stopper used to conceal 1-MCP. The stoppers were removed daily, flushed with air, stopped again and finally freshly prepared 1-MCP was added to the desired final concentration.

Triticum aestivum roots = assay: Endophytic colonization of wheat seedlings (CFU recovered from interior of roots and hypocotyls); assay type: in vivo; details: varying amounts of ACC
Text: as §1, §2
Determination of microbial population within surface sterilized plant tissue. […]

SMILES: O=C(O)c1ccccc1O [salicylic acid]
- PR1::GUS induction / expression (PR1::GUS): strongly induced

SMILES: NC1(C(=O)O)CC1 [ACC, 1-aminocyclopropane-1-carboxylic acid]
- Reduction of endophytic colonization ([1]; colonization by S. typhimurium 14028, wild-type M. sativa, ACC in growth media (5 μM)): four
- Decrease of endophytic colonization ([1]; wild-type strain (14028), FIG. 6): over two orders of magnitude
- Number of Kp342 cells within roots over time with ACC treatment ([2]; 5 μM ACC at inoculation, 10^2 cells of Kp342 per plant, days 0-6): statistically different from the controls on days 4, 5, and 6; also recorded: does not change significantly with ACC treatment until four days after inoculation
- Decline in number of cells within wheat roots (Triticum aestivum roots; 14028 cells): 1.2 orders of magnitude
- Decline in number of cells within wheat roots (Triticum aestivum roots; Kp342 cells): 1.85 orders of magnitude

SMILES: C=C [ethylene]
- Endophytic colonization in plants exposed to C2H4 or ACC for the same time period ([2]; 5 μM, Kp342): No difference in endophytic colonization
- Time of application needed for maximal inhibition of endophytic colonization ([2]; C2H4 5 μM applied from one day prior to up to 6 days after inoculation): prior to, or at the time of inoculation
- Time after exposure at which effects on endophytic colonization become significant ([2]; Kp342): 96 h

SMILES: CC1=CC1 [1-MCP, 1-methylcyclopropene]
- Effect on the ACC-induced reduction in endophytic colonization of alfalfa ([1]; 1 ppm 1-MCP, 5 μM ACC): reversed the reduction in endophytic colonization of alfalfa observed with ACC
- Endophytic colonization upon treatment ([2]; 1 ppm 1-MCP, regardless of presence or absence of exogenous ACC, Kp342): significantly higher endophytic colonization
